From patent US12049463B2, “Crystalline form of Tolebrutinib” (GENZYME CORPORATION, priority 2020, dated 2024)
Entries after “also recorded” stand apart in the source; their conditions may differ.

Assays:
Format in all cases: physicochemical
[1] = Physical and chemical stability of Form CSI on storage (purity by UPLC, solid form by XRPD); details: for Time for which crystalline state doesn't change (stable): open and sealed package
From the text: X-ray powder diffraction patterns in the present disclosure were acquired by a Bruker X-ray powder diffractometer. The parameters of the X-ray powder diffraction method of the present disclosure are as follows:
(§1) The related substance in the present disclosure was detected by UPLC and the parameters are shown below.
Said “open packaged” is putting the sample into a glass vial, covering the vial with aluminum foil, and punching 5-10 holes on the foil.
Said “sealed packaged” is putting the sample into a glass vial, capping the vial tightly, and sealing the vial in an aluminum foil bag.
A certain amount of Form CSI of the present disclosure and prior art amorphous were weighed and stored under 25° C./60% RH, 40° C./75% RH and 60° C./75% RH conditions, respectively. The purity and solid form were determined by UPLC and XRPD.

[2] = Stability at high temperature (80° C., purity by UPLC); details: for Chemical stability in words / Final purity / Purity change: 2 days; for Final purity / Purity change: glass vial with cap; for Initial purity: before storage at 80° C.
Protocol: as §1
Approximately 10 mg of Form CSI of the present disclosure and prior art amorphous were stored at 80° C. for 2 days, and the initial and final purities were determined by UPLC, as shown in Table 11.

[3] = Hygroscopicity by dynamic vapor sorption (DVS); details: for Weight gain at 80% RH: 25° C.; for Hygroscopicity class: weight gain at 80% RH, Chinese Pharmacopoeia definition
Protocol: Dynamic Vapor Sorption (DVS) was measured via an SMS (Surface Measurement Systems Ltd.) intrinsic DVS instrument. Typical Parameters for DVS test are as follows:
Gas and flow rate: nitrogen, 200 mL/min
RH range: 0% RH to 95% RH
Certain amounts of Form CSI of the present disclosure and prior art amorphous were sampled for hygroscopicity tests using dynamic vapor sorption (DVS) instrument. The weight change at each relative humidity is recorded during the cycle of 0% RH-95% RH-0% RH at 25° C., and the experimental results are listed in Table 12. The DVS plots of Form CSI and amorphous are as depicted in FIG. 8 and FIG. 9, respectively.
Description and definition of hygroscopicity (general notice 9103 drug hygroscopicity test guidelines in 2020 edition of Chinese Pharmacopoeia, experimental condition: 25±1° C., 80±2% RH): […]

[4] = XRPD before and after formulation process; details: before and after the formulation process
Protocol: According to the formulation and process in Table 13 and Table 14, the drug products were prepared with an appropriate amount of Form CSI of the present disclosure. XRPD were tested before and after formulation.

[5] = 25° C./60% RH, open packaged, 6 months
[6] = 25° C./60% RH, sealed packaged, 6 months
[7] = 40° C./75% RH, open packaged, 6 months
[8] = 40° C./75% RH, sealed packaged, 6 months
[9] = 60° C./75% RH, open packaged, 1 month
[10] = 60° C./75% RH, sealed packaged, 1 month

Structure (SMILES): C=CC(=O)N1CCC[C@@H](n2c(=O)n(-c3ccc(Oc4ccccc4)cc3)c3c(N)nccc32)C1 [Amorphous, (R)-1-(1-acryloylpiperidin-3-yl)-4-amino-3-(4-phenoxyphenyl)-1H-imidazo[4,5-c]pyridin-2(3H)-one]
- Impurity number exceed the qualificated threshold [1, 5]: 1
- Purity [1, 5]: 99.57%
- Purity change [1, 5]: −0.23%
- Solid form [1, 5]: Amorphous
- Impurity number exceed the qualificated threshold [1, 6]: 1
- Purity [1, 6]: 99.65%
- Purity change [1, 6]: −0.15%
- Solid form [1, 6]: Amorphous
- Purity decrease ([1]; 40° C./75% RH, open package, 6 months): 3.46%
- Impurity number exceed the qualificated threshold [1, 7]: 4
- Purity [1, 7]: 96.34%
- Purity change [1, 7]: −3.46%
- Solid form [1, 7]: Amorphous
- Impurity number exceed the qualificated threshold ([1]; 40° C./75% RH, open packaged, 6 months, listed as prior art amorphous): four
- Impurity number exceed the qualificated threshold ([1]; 40° C./75% RH, open packaged, 6 months, listed as prior art solid): four
- Impurity number exceed the qualificated threshold [1, 8]: 2
- Purity [1, 8]: 99.18%
- Purity change [1, 8]: −0.62%
- Solid form [1, 8]: Amorphous
- Purity decrease ([1]; 60° C./75% RH, open package, 1 month): over 6.3%
- Impurity number exceed the qualificated threshold [1, 9]: 4
- Purity [1, 9]: 93.48%
- Purity change [1, 9]: −6.32%
- Solid form [1, 9]: Amorphous
- Impurity number exceed the qualificated threshold ([1]; 60° C./75% RH, open packaged, 1 month, listed as prior art amorphous): four
- Impurity number exceed the qualificated threshold ([1]; 60° C./75% RH, open packaged, 1 month, listed as prior art solid): four
- Purity decrease ([1]; 60° C./75% RH, sealed package, 1 month): 2.76%
- Impurity number exceed the qualificated threshold [1, 10]: 2
- Purity [1, 10]: 97.04%
- Purity change [1, 10]: −2.76%
- Solid form [1, 10]: Amorphous
- Impurity number exceed the qualificated threshold ([1]; 60° C./75% RH, sealed packaged, 1 month, listed as prior art amorphous): two
- Impurity number exceed the qualificated threshold ([1]; 60° C./75% RH, sealed packaged, 1 month, listed as prior art solid): two
- Impurity number exceed the qualificated threshold ([1]; Initial (before storage)): 1
- Purity ([1]; Initial (before storage)): 99.80%
- Chemical stability in words ([2]; 80° C.): significant degradation
- Final purity ([2]; 80° C.): 98.64%
- Purity change ([2]; 80° C.): −1.16%
- Initial purity [2]: 99.80%
- Weight gain at 80% RH ([3]; DVS, listed as Prior art solid): 3.69%
- Weight gain at 80% RH ([3]; DVS, listed as prior art solid): 3.69%
- Hygroscopicity class ([3]; listed as prior art solid): hygroscopic

Structure (SMILES): C=CC(=O)N1CCC[C@@H](n2c(=O)n(-c3ccc(Oc4ccccc4)cc3)c3c(N)nccc32)C1 [Form CSI, (R)-1-(1-acryloylpiperidin-3-yl)-4-amino-3-(4-phenoxyphenyl)-1H-imidazo[4,5-c]pyridin-2(3H)-one]
- Chemical purity during storage ([1]; 25° C./60% RH, 6 months): above 99.8%
- Time for which crystalline state doesn't change (stable) ([1]; 25° C./60% RH): at least 6 months
- Impurity number exceed the qualificated threshold [1, 5]: 0
- Purity [1, 5]: 99.81%
- Purity change [1, 5]: −0.05%
- Solid form [1, 5]: Form CSI
- Impurity number exceed the qualificated threshold [1, 6]: 0
- Purity [1, 6]: 99.89%
- Purity change [1, 6]: 0.03%
- Solid form [1, 6]: Form CSI
- Chemical purity during storing ([1]; 40° C./75% RH 6 months and 60° C./75% RH 1 month): above 99.8%
- Time for which crystalline state doesn't change (stable) ([1]; 40° C./75% RH): at least 6 months
- Impurity number exceed the qualificated threshold [1, 7]: 0
- Purity [1, 7]: 99.81%
- Purity change [1, 7]: −0.05%
- Solid form [1, 7]: Form CSI
- Impurity number exceed the qualificated threshold [1, 8]: 0
- Purity [1, 8]: 99.92%
- Purity change [1, 8]: 0.06%
- Solid form [1, 8]: Form CSI
- Time for which crystalline state doesn't change ([1]; 60° C./75% RH, open or sealed package): at least 1 month
- Impurity number exceed the qualificated threshold [1, 9]: 0
- Purity [1, 9]: 99.86%
- Purity change [1, 9]: 0.00%
- Solid form [1, 9]: Form CSI
- Impurity number exceed the qualificated threshold [1, 10]: 0
- Purity [1, 10]: 99.85%
- Purity change [1, 10]: −0.01%
- Solid form [1, 10]: Form CSI
- Impurity number exceed the qualificated threshold ([1]; Initial (before storage)): 0
- Purity ([1]; Initial (before storage)): 99.86%
- Impurity content versus the qualificated threshold ([1]; throughout the stability investigation processes): does not exceed the qualificated threshold; also recorded: did not exceed the qualificated threshold
- Time for which chemical purity remains substantially unchanged ([2]; 80° C.): at least 2 days
- Chemical stability in words ([2]; 80° C.): basically remains unchanged
- Final purity ([2]; 80° C.): 99.95%
- Purity change ([2]; 80° C.): 0.01%
- Initial purity [2]: 99.94%
- Weight gain of Form CSI relative to that of the prior art ([3]; DVS): 1/7
- Weight gain at 80% RH ([3]; DVS): 0.53%
- Hygroscopicity class [3]: slightly hygroscopic
- Physical stability on formulation process (XRPD) [4]: physically stable
